Results published in patent US20260176267A1, “PREPARATION OF IMIDAZOPYRIDINE AND IMIDAZOPYRIDAZINE DERIVATIVES AS NOVEL DIACYLGLYCERIDE O-ACYLTRANSFERASE 2 INHIBITORS” (Merck Sharp & Dohme LLC, priority 2022, published 2026).

Biological target: T1, human DGAT2 (hDGAT2) (Homo sapiens, UniProt Q96PD7)
T1 construct: made in house; host or cells: Sf-9 insect cells (baculovirus), membrane fraction
T1 sequence (Q96PD7 1-388): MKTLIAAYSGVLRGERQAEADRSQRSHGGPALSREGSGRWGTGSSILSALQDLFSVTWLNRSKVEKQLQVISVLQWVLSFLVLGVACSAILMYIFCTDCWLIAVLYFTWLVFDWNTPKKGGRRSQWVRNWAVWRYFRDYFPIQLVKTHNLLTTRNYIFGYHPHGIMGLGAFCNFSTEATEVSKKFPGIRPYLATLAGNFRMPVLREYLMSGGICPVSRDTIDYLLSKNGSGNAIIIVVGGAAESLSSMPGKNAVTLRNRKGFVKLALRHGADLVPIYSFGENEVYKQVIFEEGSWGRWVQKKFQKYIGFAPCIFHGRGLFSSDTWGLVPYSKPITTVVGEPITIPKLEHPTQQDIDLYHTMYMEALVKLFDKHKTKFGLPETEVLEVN
Test: DGAT2 Enzymatic Activity Assay
Type: biochemical
Conditions: membrane prep of Sf-9 cells expressing hDGAT2; 13C18-triolein product by LC/MS/MS; 25 μM diolein, 5 μM 13C oleoyl-CoA, rt
In short: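 Membranes from Sf-9 cells expressing untagged human DGAT2 (baculovirus, 48 h) used as enzyme at rt. The product ^13C18-triolein is quantified by LC/MS/MS against a ^13C21-triolein internal standard. Percent inhibition is taken from high and low controls, and IC50 is derived.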

For CC1(NC(=O)c2nc3ccc(Oc4ncccc4OCC(F)(F)F)cn3c2CO)CCS(=O)(=O)CC1 [Example 137, 3-(hydroxymethyl)-N-(4-methyl-1,1-dioxo-thian-4-yl)-6-[3-(2,2,2-trifluoroethoxy)pyridine-2-yl]oxy-imidazo[1,2-a]pyridine-2-carboxamide], the IC50 was 11 nM.
CC1(NC(=O)c2nc3ccc(Oc4ncc(F)cc4OCC(F)(F)F)c(Cl)n3c2Cl)CCS(=O)(=O)CC1 [Example 139, 3,5-dichloro-6-[[5-fluoro-3-(2,2,2-trifluoroethoxy)-2-pyridyl]oxy]-N-(4-methyl-1,1-dioxo-thian-4-yl)imidazo[1,2-a]pyridine-2-carboxamide] gave an IC50 of 0.7 nM.
With CCc1cnc(Oc2ccc3nc(C(=O)NC4(C)CS(=O)(=O)C4)c(C)n3c2)c(OCC(F)(F)F)c1 [Example 79, 6-[[5-ethyl-3-(2,2,2-trifluoroethoxy)-2-pyridyl]oxy]-3-methyl-N-(3-methyl-1,1-dioxo-thietan-3-yl)imidazo[1,2-a]pyridine-2-carboxamide] the IC50 was 6.8 nM.
CC1(NC(=O)c2cn3cc(Oc4ncc(Cl)cc4OCC(F)F)ccc3n2)CS(=O)(=O)C1 [Example 11, 6-[[5-chloro-3-(2,2-difluoroethoxy)-2-pyridyl]oxy]-N-(3-methyl-1,1-dioxo-thietan-3-yl)imidazo[1,2-a]pyridine-2-carboxamide] gave an IC50 of 23 nM.
In the case of Cc1c(Oc2ncc(Cl)cc2OCC(C)(F)F)ccc2nc(C(=O)NC3(C)CCS(=O)(=O)CC3)c(F)n12 [Example 143, 6-[[5-chloro-3-(2,2-difluoropropoxy)-2-pyridyl]oxy]-3-fluoro-5-methyl-N-(4-methyl-1,1-dioxo-thian-4-yl)imidazo[1,2-a]pyridine-2-carboxamide], the IC50 is reported as 37 nM.
In the case of CC1(NC(=O)c2nc3cc(Cl)c(Oc4ncc(Cl)cc4OCC(F)(F)F)nn3c2Cl)CS(=O)(=O)C1 [Example 179, 3,7-dichloro-6-[[5-chloro-3-(2,2,2-trifluoroethoxy)-2-pyridyl]oxy]-N-(3-methyl-1,1-dioxo-thietan-3-yl)imidazo[1,2-b]pyridazine-2-carboxamide], the IC50 is reported as 101 nM.
Cc1c(C(=O)NC2(C)CCS(=O)(=O)CC2)nc2cc(F)c(Oc3ncc(F)cc3OCC(F)(F)F)cn12 [Example 118, 7-fluoro-6-[[5-fluoro-3-(2,2,2-trifluoroethoxy)-2-pyridyl]oxy]-3-methyl-N-(4-methyl-1,1-dioxo-thian-4-yl)imidazo[1,2-a]pyridine-2-carboxamide] gave an IC50 of 1.4 nM.
Cc1c(C(=O)NC2(CC(F)(F)F)CCCOC2)nc2ccc(Oc3ncccc3OCC(F)(F)F)cn12 (stereo not shown) [Example 112, 3-methyl-6-[[3-(2,2,2-trifluoroethoxy)-2-pyridyl]oxy]-N-[3-(2,2,2-trifluoroethyl)tetrahydropyran-3-yl]imidazo[1,2-a]pyridine-2-carboxamide] showed an IC50 of 3380 nM.
Cc1c(C(=O)NC2(C)CCS(=O)(=O)CC2)nc2ccc(Oc3ncccc3OCC(F)(F)F)cn12 [Example 87, 3-methyl-N-(4-methyl-1,1-dioxo-thian-4-yl)-6-[[3-(2,2,2-trifluoroethoxy)-2-pyridyl]oxy]imidazo[1,2-a]pyridine-2-carboxamide] was tested, and the IC50 was 17 nM.
Cc1c(C(=O)NC2(C)CCS(=O)(=O)CC2)nc2ccc(Oc3nccnc3OCC(F)(F)F)cn12 [Example 82, 3-methyl-N-(4-methyl-1,1-dioxo-thian-4-yl)-6-[3-(2,2,2-trifluoroethoxy)pyrazin-2-yl]oxy-imidazo[1,2-a]pyridine-2-carboxamide] was tested, and the IC50 was 9.1 nM.
Molecule O=C(NC1CCOc2c(F)cc(F)cc21)c1cn2cc(Oc3ncccc3OCC(F)(F)F)ccc2n1 (stereo not shown) [Example 51, N-(6,8-difluorochroman-4-yl)-6-[[3-(2,2,2-trifluoroethoxy)-2-pyridyl]oxy]imidazo[1,2-a]pyridine-2-carboxamide] has an IC50 of 123 nM.
For Cc1c(Oc2nccnc2OCC(F)(F)F)cc(F)c2nc(C(=O)NC3(C)CCS(=O)(=O)CC3)cn12 [Example 44, 8-fluoro-5-methyl-N-(4-methyl-1,1-dioxo-thian-4-yl)-6-[3-(2,2,2-trifluoroethoxy)pyrazin-2-yl]oxy-imidazo[1,2-a]pyridine-2-carboxamide], the IC50 was 68 nM.
Cc1cc2nc(C(=O)NC3(C)CCS(=O)(=O)CC3)c(C)n2nc1Oc1ncc(F)cc1OCC(F)F [Example 171, 6-[[3-(2,2-difluoroethoxy)-5-fluoro-2-pyridyl]oxy]-3,7-dimethyl-N-(4-methyl-1,1-dioxo-thian-4-yl)imidazo[1,2-b]pyridazine-2-carboxamide] gave an IC50 of 1.3 nM.
For Cc1c(C(=O)NC2(C)CN(C(=O)C(F)(F)F)C2)nc2ccc(Oc3ncc(F)cc3OCC(F)(F)F)cn12 [Example 89, 6-[[5-fluoro-3-(2,2,2-trifluoroethoxy)-2-pyridyl]oxy]-3-methyl-N-[3-methyl-1-(2,2,2-trifluoroacetyl)azetidin-3-yl]imidazo[1,2-a]pyridine-2-carboxamide], the IC50 was 20 nM.
For CCOCC(C)(C)COc1ccc2nc(C(=O)NC3(C)CCS(=O)(=O)CC3)c(C)n2c1 [Example 129, 6-(3-ethoxy-2,2-dimethyl-propoxy)-3-methyl-N-(4-methyl-1,1-dioxo-thian-4-yl)imidazo[1,2-a]pyridine-2-carboxamide], the IC50 was 161 nM.
With Cc1cc(Oc2ncccc2OCC(F)(F)F)cn2cc(C(=O)NC3(C)CCS(=O)(=O)CC3)nc12 [Example 24, 8-methyl-N-(4-methyl-1,1-dioxo-thian-4-yl)-6-[[3-(2,2,2-trifluoroethoxy)-2-pyridyl]oxy]imidazo[1,2-a]pyridine-2-carboxamide] the IC50 was 117 nM.
With CC(F)(F)COc1cc(F)cnc1Oc1cn2cc(C(=O)NC3(C)CCS(=O)(=O)CC3)nc2cc1F [Example 47, 6-((3-(2,2-difluoropropoxy)-5-fluoropyridin-2-yl)oxy)-7-fluoro-N-(4-methyl-1,1-dioxidotetrahydro-2H-thiopyran-4-yl)imidazo[1,2-a]pyridine-2-carboxamide] the IC50 was 8.7 nM.
In the case of Cc1c(C(=O)NC23CC(F)(C2)C3)nc2ccc(Oc3ncc(F)cc3OCC(F)F)cn12 [Example 99], the IC50 is reported as 56 nM.
Work on CC(C)c1c(C(=O)NC2(C)CCS(=O)(=O)CC2)nc2ccc(Oc3ncccc3OCC(F)(F)F)cn12 [Example 116, 3-isopropyl-N-(4-methyl-1,1-dioxo-thian-4-yl)-6-[[3-(2,2,2-trifluoroethoxy)-2-pyridyl]oxy]imidazo[1,2-a]pyridine-2-carboxamide] yielded an IC50 of 413 nM.
Cc1c(C(=O)NC2(C)CCS(=O)(=O)CC2)nc2ccc(Oc3ncc(F)cc3OCC(F)(F)C(F)F)cn12 [Example 104, 6-[[5-fluoro-3-(2,2,3,3-tetrafluoropropoxy)-2-pyridyl]oxy]-3-methyl-N-(4-methyl-1,1-dioxo-thian-4-yl)imidazo[1,2-a]pyridine-2-carboxamide] gave an IC50 of 342 nM.
In the case of Cc1c(C(=O)NC2(C)CCS(=O)(=O)C(C)(C)C2)nc2ccc(Oc3ncc(Cl)cc3OCC(F)F)cn12 (stereo not shown) [Example 100, 6-[[5-chloro-3-(2,2-difluoroethoxy)-2-pyridyl]oxy]-3-methyl-N-(2,2,4-trimethyl-1,1-dioxo-thian-4-yl)imidazo[1,2-a]pyridine-2-carboxamide], the IC50 is reported as 114 nM.
Work on CCOc1cccnc1Oc1ccc2nc(C(=O)NCc3ccccc3)cn2c1 [Example 53, N-benzyl-6-[(3-ethoxy-2-pyridyl)oxy]imidazo[1,2-a]pyridine-2-carboxamide] yielded an IC50 of 346 nM.
In the case of CC1(NC(=O)c2cn3cc(Oc4ncc(Cl)cc4OCC(F)(F)F)ccc3n2)CS(=O)(=O)C1 [Example 1, 6-[[5-Chloro-3-(2,2,2-trifluoroethoxy)-2-pyridyl]oxy]-N-(3-methyl-1,1-dioxo-thietan-3-yl)imidazo[1,2-a]pyridine-2-carboxamide], the IC50 is reported as 5 nM.
For Cc1c(C(=O)NC2(C)CCS(=O)(=O)CC2)nc2ccc(Oc3ncc(Cl)cc3OCC(F)(F)F)cn12 [Example 61, 6-[[5-chloro-3-(2,2,2-trifluoroethoxy)-2-pyridyl]oxy]-3-methyl-N-(4-methyl-1,1-dioxo-thian-4-yl)imidazo[1,2-a]pyridine-2-carboxamide], the IC50 was 3 nM.
CC(F)(F)COc1cc(F)cnc1Oc1ccc2nc(C(=O)NC3(C)CCS(=O)(=O)CC3)cn2n1 [Example 156, 6-[[3-(2,2-Difluoropropoxy)-5-fluoro-2-pyridyl]oxy]-N-(4-methyl-1,1-dioxo-thian-4-yl)imidazo[1,2-b]pyridazine-2-carboxamide] gave an IC50 of 988 nM.
Cc1c(Oc2ncc(Cl)cc2OCC(F)(F)F)ccc2nc(C(=O)NC3(C)CCS(=O)(=O)CC3)c(F)n12 [Example 142, 6-[[5-chloro-3-(2,2,2-trifluoroethoxy)-2-pyridyl]oxy]-3-fluoro-5-methyl-N-(4-methyl-1,1-dioxo-thian-4-yl)imidazo[1,2-a]pyridine-2-carboxamide] showed an IC50 of 3.5 nM.
For Cc1ccnc(Oc2ccc3nc(C(=O)NC4(C)CCS(=O)(=O)CC4)c(C)n3c2)c1OCC(F)(F)F [Example 107, 3-methyl-N-(4-methyl-1,1-dioxo-thian-4-yl)-6-[[4-methyl-3-(2,2,2-trifluoroethoxy)-2-pyridyl]oxy]imidazo[1,2-a]pyridine-2-carboxamide], the IC50 was 634 nM.
For Cc1c(C(=O)NC2(C)CCS(=O)(=O)CC2)nc2ccc(Oc3ncc(F)cc3OCC3(F)CC3)cn12 [Example 68], the IC50 was 0.8 nM.
